These are literature values, as cited in patent US20260217749A1, “METAL COMPLEX COMPOUNDS AS PHOTOSENSITIZERS FOR PHOTODYNAMIC THERAPY” (UNIVERSITAT DE BARCELONA, priority 2023, published 2026).

Molecules are shown by their SMILES.

In the data set the test system is SK-MEL-28 melanoma cells. Particulars: red light irradiation (625 nm).

Consider `Cc1ccnc(-c2cc(C)ccn2)c1.Cc1ccnc(-c2cc(C)ccn2)c1.[Cl-].[Cl-].[Ru+2].c1csc(-c2ccc(-c3ccc(-c4nc5c6cccnc6c6ncccc6c5[nH]4)s3)s2)c1` [TLD-1433], for which the IC50 was 2.3 µM and the PI value entry is reported as “moderate”.

One may read the IC50 as the point on the concentration scale where inhibition reaches its midpoint.
